The results in this text go back to patent publication US11932638B2, “Ion channel inhibitor compounds for cancer treatment” (Centre National de la Recherche Scientifique, priority 2017, dated 2024).

One may read the inhibition as the percentage by which the read-out fell short of the control.

Structures are written as SMILES.

One data set has as its target T1, SK2 channel (Rattus norvegicus, UniProt P70604).
T1 construct: expressed in transfected cells
Put plainly: Automated patch clamp (Nanion NPC-16 Patchliner Quattro) on HEK-rSK2 cells, SK2 channel activity. The format is cell-based. The text has this:
(§1) Cell Lines Used to Screen the Molecules on the Activity of SKCa Channels (Small Conductance Calcium-Activated Potassium Channel; SK1, SK2 and SK3) and IKCa Channels (Intermediate Conductance Calcium-Activated Potassium Channel, SK4)
(§2) Use was made of the HEK 293 T line, a foetal kidney line which was immortalised with the T antigen of the […] simian virus. This cell line is widely used on account of the ease with which these cells can be transfected with plasmids or other transfection vectors. Four stable lines were used for patch clamp experiments: HEK-hSK1, HEK-rSK2, HEK-rSK3 and HEK-IKCa/SK4 which respectively overexpress the SK1, SK2, SK3 and SK4 channels. The lines were obtained via stable transduction (Girault et al., Current Cancer Drug Targets, 2011, 11, 1111-25) and are those already routinely used to assay SK3 modulators (Potier et al. Br J Pharmacol. 2011 January; 162(2):464-79; Sevrain et al., Med. Chem. Commun., 2012, 3, 1471-1478; Sevrain et al., Organic & Biomolecular Chemistry, 2013 Jul. 21; 11(27):4479-87, Berthe W, Sevrain C M, Chantôme A, Bouchet A M, Gueguinou M, Fourbon Y, Potier-Cartereau M, Haelters J P, Couthon-Gourvès H, Vandier C, Jaffrès P A. ChemMedChem. 2016 Jul. 19; 11(14):1531-9). […] These lines therefore enabled us without difficulty to examine the effect of the molecules on the SK3 channel, and also the selectivity thereof by means of the patch clamp technique. The inhibitory activity of the non-toxic molecules was assayed on the activity of the SK3 channel. The selectivity of the molecules was determined by patch clamp on HEK cell models stably expressing the SK3 channel but also the SK1, SK2, SK3 or IKCa/SK4 channels.
(§3) Patch clamp is a technique allowing measurement of the activity of ion channels by recording macroscopic (whole cell configuration) or microscopic (e.g. inside out configuration) ionic currents through the plasma membrane. For assay of the effect of the molecules on the SKCa/IKCa channels, two complementary techniques were used: conventional, manual patch clamp and automated patch clamp with the Nanion NPC-16 Patchliner Quattro (4 channels) (Potier et al., Mol Cancer Ther 2006, 5, 2946-53; Chantome et al., Exp Cell Res 2009, 315, 3620-30; Potier et al., Biochem Biophys Res Commun 2010, 397, 42-7; Girault et al., Current Cancer Drug Targets, 2011, 11, 1111-25; Sevrain et al., Med. Chem. Commun., 2012, 3, 1471-1478; Sevrain et al., Organic & Biomolecular Chemistry, 2013 Jul. 21; 11(27):4479-87; Chantome et al., Cancer Research, 2013 Aug. 1; 73(15):4852-61, Gueguinou M, Crottès D, Chantôme A, Rapetti-Mauss R, Potier-Cartereau M, Clarysse L, Girault A, Fourbon Y, Jézéquel P, Guérin-Charbonnel C, Fromont G, Martin P, Pellissier B, Schiappa R, Chamorey E, Mignen O, Uguen A, Borgese F, Vandier C, Soriani O. Oncogene. 2017 Jan. 23. doi: 10.1038/onc.2016.501, Berthe W, Sevrain C M, Chantôme A, Bouchet A M, Gueguinou M, Fourbon Y, Potier-Cartereau M, Haelters J P, Couthon-Gourvès H, Vandier C, Jaffrès P A. ChemMedChem. 2016 Jul. 19; 11(14):1531-9, Guéguinou M, Harnois T, Crottes D, Uguen A, Deliot N, Gambade A, Chantôme A, Haelters J P, Jaffrès P A, Jourdan M L, Weber G, Soriani O, Bougnoux P, Mignen O, Bourmeyster N, Constantin B, Lecomte T, Vandier C, Potier-Cartereau M. Oncotarget. 2016 Jun. 14; 7(24):36168-36184. doi: 10.18632/oncotarget.8786).
The technique of choice to determine molecules inhibiting the activity of ion channels is the patch-clamp technique. However, this technique which is manual is time-consuming and only gives low yields. Automation of patch-clamp brought a revolution in the study and screening of ion channels and has allowed the envisaging of assays with much faster flow rate and much higher yield. There exist several automatic patch clamp devices based on the use of chips. […]

Data set [1] relates to MDA-MB-435s-Luc cells expressing the SK3 channel. Nature of the data set: In vivo mouse model of orthotopic xenograft: primary tumour and metastases. Details: species or system female NMRI nude mice. As to conditions: 1 mg/kg intraperitoneal, three times per week. An excerpt: In Vivo Mouse Model of Orthotopic Xenograft: Assay on Capacity of the Molecules to Reduce Tumour Development
This model allowed study on a metastatic cancer with development of the primary tumour and formation of metastases in parallel with primary tumour development. For this assay, female NMRI nude mice aged four weeks were used. To prepare the graft, the terminal end bud of the mice was cauterised with an electrical scalpel and 2 million cells expressing the SK3 channel and luciferase (MDA-MB-435s-Luc) implanted therein. Luciferase allows in vivo monitoring of tumour development via optical imaging (Girault et al., Current Cancer Drug Targets, 2011, 11, 1111-25; Chantome et al., Cancer Research, 2013 Aug. 1; 73(15):4852-61).
Two groups of mice were formed and compound 20 was prepared in a DMSO/PEG300/Water mixture (5:45:50) at 10 ml/kg: • Group 20 1: group treated via intraperitoneal injection of compound 20 at 1 mg/kg, three times per week for […]; and • Control group: group given injections with equivalent vehicle dilution […], three times per week for 15 weeks.
Development of the primary tumour was monitored in two manners: size measurement with a calliper rule (length×width×thickness) and measurement of bioluminescence with a bio-imaging device.
If the primary tumour reached a size of 900 mm^3, it was fully excised to best approach a clinical situation and exclude this variable which could impact the development of metastases. The experiment was continued with injections of compound 20 and monitoring of the development of metastases via BLI with front and back imaging of the mice.
The weight of the mice, bioluminescence and tumour size measurements were carried out every week to monitor tumour changes and metastases. For imaging, the mice were anaesthetised with isoflurane.
After about 15 weeks, the mice were sacrificed. Luciferin was injected before sacrifice to allow whole-animal imaging and imaging of each organ examined (bone, liver, lymph node, brain, colon).

The target of a further data set is T2, SK3 channel (Rattus norvegicus, UniProt P70605).
T2 construct: expressed in transfected cells
Put plainly: Conventional manual patch clamp on HEK-rSK3 cells, SK3 channel activity. It is filed as cell-based.
From the text: as §1, §2
Electrophysiology/Patch-Clamp
as §3
For conventional patch clamp, the micropipette is filled with an intrapipette medium—IPM (see composition below) and allows measurement of ionic currents at the same time as allowing maintaining of membrane potential (voltage clamp). The experimental device was composed of an anti-vibration table supporting an inverted microscope (Nikon, Eclipse TE 300). The Petri dish (Corning Incorporated, USA), containing the cells was placed on a plexiglass plate attached to the microscope stage. The pipette was connected to the amplifier (Axopatch 200B) as reference electrode which allowed closing of the electrical circuit. […]
(Patch clamp records ionic current or voltage across a cell membrane.)

`c1ccc2c(c1)CCC[C@@H]2Nc1ncnc2cccnc12` [Compound 20, (S)—N-(1,2,3,4-Tetrahydronaphthalen-1-yl)pyrido[3,2-d]pyrimidin-4-amine]: the inhibition at 0.1 µM on SK2 channel (100 nM) came out at 91.2%. The inhibition at 10 µM against SK2 channel (10 μM) was determined as 91.8%; against SK3 channel (10 μM), 92.8%. For the same compound, in data set [1], the “toxicity in xenografted mice” value was “apparent non-toxicity”. For the same compound, in data set [1] (at 10 weeks, xenografted mice), the “weight of the mice versus control group” value was “no significant difference in weight between the two groups”. Further, the “primary tumour volume versus control group” value in data set [1] (at the time of primary tumour excision) is given as “Tumour volume did not differ between groups”. Besides, the lung metastases entry in data set [1] (ex vivo after 15 weeks) is “developed lung metastases”. Besides, in data set [1] (ex vivo after 15 weeks, FIG. 1), the bone metastases result is reported as “reduced the number of bone metastases”. Further, in data set [1] (ex vivo after 15 weeks, FIG. 2), the “ovarian and uterine metastases” value is “fully stopped the development of ovarian and uterine metastases”. On SK3 channel (10 nM), this compound gave an inhibition at 0.01 µM of 45.5%.
